≈ marks a conversion by molar mass, not a printed value. Read-outs that look alike come from different tables or passages of the source.
Tests used:
[1] = In vivo bioavailability of oral suspensions of prodrugs, plasma LC/MS; conditions: male Sprague-Dawley rats, single oral dose of suspension corresponding to 3 mg/kg of compound (I), plasma 0.12 h to 8 h
Protocol: The formulation vehicle used in the following suspension is a mixture of 1% (w/v) methylcellulose (400 cps), 0.1% (weight/volume) TWEEN® 80, 0.1% (w/v) Antifoam 1510 US in 25 mM phosphate buffer pH 3.0 in water. […]
The solution is homogenized by sonication during 1 minute, repeated 3 times.
Three male Sprague-Dawley rats were administered the respective suspensions of (II-A), (II-B) and (II-C), as described in paragraph 7.1 above, at a single oral dose corresponding to 3 mg/kg of compound of formula (I).
Plasma samples were collected 0.12 h, 0.25 h, 0.5 h, 1 h, 2 h, 4 h and 8 h following dosing.
Plasma concentrations of compound (I) and respective compounds (II-A), (II-B) and (II-C) were quantified by LC/MS (liquid chromatography/mass spectrometry).

[2] = Solubility by shake flask method (24 h, HPLC); format: physicochemical; conditions: n=3 mean; for solubility at 24 h: thermodynamic from solid, read-out: Solubility Measurements (mean value) (24 h)
Protocol: The solubility of compounds of formula (Ia) obtained according to Example 2.12. and compounds of formula (II-A), (II-Ax) and (II-B) obtained respectively according to Examples 3.2. and 4.2., was determined in different media while using the shake flask method. An excess of solids, for (II-Ax) and (II-B) equivalent to a concentration of compound of formula (I) of 5 mg/mL, and for (II-A) equivalent to a concentration of compound of formula (I) of 1 mg/mL was suspended in 5 mL of buffer/biorelevant media as specifically described in Table 1 and incubated in a sealed glass vial (10 mL) for 24 h at room temperature or 37° C. (as indicated below) in a climatic chamber equipped with a rotary mixer. The 24 h time point was assumed to have reached solubility, at which time the suspension was filtered through a 0.45-μm ultra free filter (Merck Millipore) and the drug content was determined by HPLC. The solubility of compounds (Ia), (II-A), (II-Ax) and (II-B) was determined in triplicate (n=3) and mean value calculated.
The media tested are respectively water, phosphate buffer, FasSGF, FASSIF-V2 and FeSSIF-V2. FasSG is fasted condition gastric fluid. FasSGF is prepared at pH 1.6 and contains 0.08 mM Taurocholate, 0.02 mM phospholipids, 34 mM sodium and 59 mM chloride. FaSSIF-V2 and FeSSIF-V2 are Fasted and Fed State Biorelevant Media, respectively. FaSSIF-V2 is prepared at pH 6.5 and contains 3 mM Taurocholate, 0.2 mM Phospholipids, 106 mM Sodium, 69 mM Chloride and 19 mM Maleic acid. FeSSIF-V2 is prepared at pH 5.8 and contains 10 mM Taurocholate, 2 mM Phospholipids, 0.8 mM Oleate, 5 mM Glycerol monoleate, 218 mM Sodium, 125 mM Chloride and 55 mM Maleic acid.

[3] = phosphate buffer, pH 4, aqueous buffer, Phosphate buffer (50 mM), pH 4.0, RT
[4] = water, pH 7, water, Water, pH 7.0, RT
[5] = phosphate buffer, pH 6.5, aqueous buffer, Phosphate buffer (50 mM), pH 6.5, RT
[6] = FaSSIF-V2, 37 °C, pH 6.5, fassif, FaSSIF-V2, pH 6.5, 37° C.
[7] = FasSGF, 37 °C, pH 1.6, fassgf or other biorelevant, FasSGF, pH 1.6, 37° C.
[8] = FeSSIF-V2, 37 °C, pH 5.8, fessif, FeSSIF-V2, pH 5.8, 37° C.

cleavage of prodrug into compound of formula (I) in plasma [1]	Solubility Measurements (mean value) (24 h) ([2]; FaSSIF-V2, pH 6.5, 37° C.) [µg/mL]	solubility at 24 h [2, 3] [µg/mL]	solubility at 24 h [2, 4] [µg/mL]	Solubility Measurements (mean value) (24 h) ([2]; FeSSIF-V2, pH 5.8, 37° C.) [µg/mL]	solubility at 24 h [2, 5] [µg/mL]	solubility at 24 h [2, 6] [µg/mL]	solubility at 24 h [2, 7] [µg/mL]	solubility at 24 h [2, 8] [µg/mL]	SMILES
completely cleaved	~1100	~1000	~1000	–	–	–	–	–	C[C@H]1c2cccc(C(C)(C)O)c2C[C@H](COP(=O)(O)O)N1C(=O)Cc1c(Cl)ccc2c1c(Cl)nn2C [(II-A), [(1S,3R)-2-[2-(3,5-dichloro-1-methyl-indazol-4-yl)acetyl]-5-(1-hydroxy-1-methyl-ethyl)-1-methyl-3,4-dihydro-1H-isoquinolin-3-yl]methyl dihydrogen phosphate]
–	>5000	–	–	>5000	> 5000	–	–	–	C[C@H]1c2cccc(C(C)(C)O)c2C[C@H](COP(=O)(O)O)N1C(=O)Cc1c(Cl)ccc2c1c(Cl)nn2C [(II-Ax), [(1S,3R)-2-[2-(3,5-dichloro-1-methyl-indazol-4-yl)acetyl]-5-(1-hydroxy-1-methyl-ethyl)-1-methyl-3,4-dihydro-1H-isoquinolin-3-yl]methyl dihydrogen phosphate]
partially cleaved	–	~850 (≈ 1480 µM)	~40 (≈ 69.5 µM)	–	~70 (≈ 122 µM)	~30 (≈ 52.1 µM)	~4800 (≈ 8340 µM)	~900 (≈ 1560 µM)	CC(C)[C@H](N)C(=O)OC[C@H]1Cc2c(cccc2C(C)(C)O)[C@H](C)N1C(=O)Cc1c(Cl)ccc2c1c(Cl)nn2C [(II-B), [(1S,3R)-2-[2-(3,5-dichloro-1-methyl-indazol-4-yl)acetyl]-5-(1-hydroxy-1-methyl-ethyl)-1-methyl-3,4-dihydro-1H-isoquinolin-3-yl]methyl (2S)-2-amino-3-methyl-butanoate]
completely cleaved	–	–	–	–	–	–	–	–	CC(C)C[C@H](N)C(=O)OC[C@H]1Cc2c(cccc2C(C)(C)O)[C@H](C)N1C(=O)Cc1c(Cl)ccc2c1c(Cl)nn2C [(II-C), [(1S,3R)-2-[2-(3,5-dichloro-1-methyl-indazol-4-yl)acetyl]-5-(1-hydroxy-1-methyl-ethyl)-1-methyl-3,4-dihydro-1H-isoquinolin-3-yl]methyl (2S)-2-amino-4-methyl-pentanoate]
–	–	< 1	< 1	–	< 1	~1.5 (≈ 3.15 µM)	< 1	~4 (≈ 8.4 µM)	C[C@H]1c2cccc(C(C)(C)O)c2C[C@H](CO)N1C(=O)Cc1c(Cl)ccc2c1c(Cl)nn2C [(Ia), 2-(3,5-dichloro-1-methyl-indazol-4-yl)-1-[(1S,3R)-3-(hydroxymethyl)-5-(1-hydroxy-1-methyl-ethyl)-1-methyl-3,4-dihydro-1H-isoquinolin-2-yl]ethanone]
